Measurements published in the supplement of paper PMC10307832.

What was measured:
Experiment in all cases: relative viability (nuclei count vs DMSO), 5 days (fraction); higher = more cells survive
[1] = compound: O=C(/C=C/c1cccnc1)NCCCCC1CCN(C(=O)c2ccccc2)CC1 [Daporinad] + Nc1ncn([C@H]2C[C@H](O)[C@@H](CO)O2)c(=O)n1 [Decitabine] (partner 2 µM)
How it was run: (§1)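 For relative viability, nuclei counts in treated wells were divided by those in vehicle wells. Lung cancer cell lines had been pin-tool dosed in 1536-well plates the day after seeding and cultured for 5 days, then fixed and stained in one step (final 0.05% Triton X-100, 1% formaldehyde, 1 ug/ml Hoechst) and imaged at 4×. Doses were one drug alone or a fixed anchor-drug dose plus five library-drug doses (not always all listed) in √10 steps, and values are duplicate-plate medians.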

[2] = compound: COc1cc(Nc2ncc(F)c(Nc3ccc4c(n3)NC(=O)C(C)(C)O4)n2)cc(OC)c1OC [R406] + Nc1nc2[nH]cc(CCc3ccc(C(=O)N[C@@H](CCC(=O)O)C(=O)O)cc3)c2c(=O)[nH]1 [Pemetrexed] (partner 0.2 µM)
How it was run: as §1

[3] = compound: O=C(/C=C/c1cccnc1)NCCCCC1CCN(C(=O)c2ccccc2)CC1 [Daporinad] + COc1cccc2cc(-c3nc([C@H]4CC[C@H](C(=O)O)CC4)n4ncnc(N)c34)[nH]c12 [OSI-027] (partner 0.5 µM)
How it was run: as §1

[4] = compound: O=C(/C=C/c1cccnc1)NCCCCC1CCN(C(=O)c2ccccc2)CC1 [Daporinad] + O=C(c1cc(Cc2n[nH]c(=O)c3ccccc23)ccc1F)N1CCN(C(=O)C2CC2)CC1 [Olaparib] (partner 8 µM)
How it was run: as §1

Cell Line | relative viability ([1]; first compound 0.0005 µM) | relative viability ([1]; first compound 0.001581 µM) | relative viability ([1]; first compound 0.005 µM) | relative viability ([1]; first compound 0.01581 µM) | relative viability ([2]; first compound 0.08 µM) | relative viability ([2]; first compound 0.253 µM) | relative viability ([2]; first compound 0.8 µM) | relative viability ([2]; first compound 2.53 µM) | relative viability ([2]; first compound 8 µM) | relative viability ([3]; first compound 0.0005 µM) | relative viability ([3]; first compound 0.001581 µM) | relative viability ([3]; first compound 0.005 µM) | relative viability ([3]; first compound 0.01581 µM) | relative viability ([4]; first compound 0.0005 µM) | relative viability ([4]; first compound 0.001581 µM) | relative viability ([4]; first compound 0.005 µM) | relative viability ([4]; first compound 0.01581 µM)
PC-3 [JPC-3] | 0.84 | 0.781 | 0.91 | 0.907 | 1.08 | 1.25 | 1.25 | 0.882 | 0.455 | 0.802 | 0.707 | 0.874 | 0.823 | 1.18 | 1.08 | 1 | 1.09
NCI-H1651 | 0.711 | 0.67 | 0.731 | 0.47 | 0.475 | 0.679 | 0.573 | 0.548 | 0.508 | 0.747 | 0.767 | 0.744 | 0.604 | 0.159 | 0.15 | 0.131 | 0.138
HARA | 0.351 | 0.496 | 0.442 | 0.207 | 0.261 | 0.236 | 0.246 | 0.262 | 0.174 | 0.488 | 0.56 | 0.55 | 0.355 | 0.726 | 0.425 | 0.466 | 0.28
NCI-H1650 | 0.402 | 0.396 | 0.458 | 0.327 | 0.355 | 0.408 | 0.37 | 0.291 | 0.358 | 0.637 | 0.655 | 0.733 | 0.825 | 0.724 | 0.601 | 0.431 | 0.443
NCI-H1395 | 0.713 | 0.816 | 0.765 | 0.784 | 0.865 | 1.01 | 0.856 | 0.865 | 0.434 | 0.644 | 0.64 | 0.71 | 0.739 | 0.436 | 0.471 | 0.432 | 0.425
